Experimental data taken from US20070298099A1, “Liquid and Semi-Solid Pharmaceutical Formulations for Oral Administration of a Substituted Amide” (priority 2004, published 2007).

What was measured:
[1] = Solubility of Compound I Polymorph B in various liquid vehicles (suspension equilibrated at least 24 hours, filtered, HPLC); type: physicochemical
Method: Solubility determinations were carried out at room temperature unless otherwise specified. Solubility of N-[1S,2S]-3-(4-chlorophenyl)-2-(3-cyanophenyl)-1-methylpropyl]-2-methyl-2-{[5-trifluoromethyl]pyridine-2-yl}oxy}propanamide (Compound I) as anhydrous unsolvated Polymorph B (such as prepared in Preparatory Example 2) was determined by preparing a suspension of anhydrous unsovated Polymorph B of Compound I in the solvent system. After equilibration for at least 24 hours, the suspension was filtered and the supernatant was analyzed by HPLC. Chromatography was performed on either a Vydac C18 300 A 250×4.6 mm 5 um particle size with in-line Phenomenex Security Guard w/ C18 cartridge or on a Polaris C18-Ether columns or on a Polaris C8-Ether columns using 0.1% phosphoric acid in combination with methanol or acetonitrile depending on HPLC conditions. The compound was detected at […] and assayed using standard curves. The results are presented below in Table 1, calculated based on mg/g vehicle.

[2] = Aqueous solubility of Compound I; type: physicochemical
[3] = Oral bioavailability when dosed as a crystalline solid, dogs; type: in vivo; settings: even when surfactant was included in the formulation
[4] = Oral bioavailability when dosed as a crystalline solid, monkeys; type: in vivo; settings: even when surfactant was included in the formulation

## C[C@H](NC(=O)C(C)(C)Oc1ccc(C(F)(F)F)cn1)[C@@H](Cc1ccc(Cl)cc1)c1cccc(C#N)c1 [Compound I, N-[1S,2S]-3-[(4-chlorophenyl)-2-(3-cyanophenyl)-1-methylpropyl]-2-methyl-2-{[(5-trifluoromethyl)pyridine-2-yl]oxy}propanamide]
[1]; CAPRYOL PGMC, anhydrous unsolvated Polymorph B, room temperature
  Solubility of Compound I, mg/g of vehicle: 396 mg/g of vehicle
[1]; CREMOPHOR-EL, Polymorph B, room temperature
  Solubility of Compound I, mg/g of vehicle: 131 mg/g of vehicle
[1]; Corn oil-SPAN 80-CREMOPHOR EL (35:35:30), w/w/w, Polymorph B, room temperature
  Solubility of Compound I, mg/g of vehicle: 69 mg/g of vehicle
[1]; Corn oil-SPAN 80-TWEEN 80 (30:30:40), w/w/w, Polymorph B, room temperature
  Solubility of Compound I, mg/g of vehicle: 78 mg/g of vehicle
[1]; Corn oil/Oleic acid/TWEEN 80 (5:2:3), w/w/w, Polymorph B, room temperature
  Solubility of Compound I, mg/g of vehicle: 57 mg/g of vehicle
[1]; Glycerol, Polymorph B, room temperature
  Solubility of Compound I, mg/g of vehicle: 0.4 mg/g of vehicle
[1]; IMWITOR 742-MIGLYOL 812-TWEEN 80, (15:65:20) w/w/w, Polymorph B, room temperature
  Solubility of Compound I, mg/g of vehicle: 140 mg/g of vehicle
[1]; IMWITOR 742-MIGLYOL 812-TWEEN 80, (30:50:20) w/w/w, Polymorph B, room temperature
  Solubility of Compound I, mg/g of vehicle: 171 mg/g of vehicle
[1]; IMWITOR 742-MIGLYOL 812-TWEEN 80, (40:40:20) w/w/w, Polymorph B, room temperature
  Solubility of Compound I, mg/g of vehicle: 187 mg/g of vehicle
[1]; IMWITOR 742-MIGLYOL 812-TWEEN 80,(45:45:10) w/w/w, Polymorph B, room temperature
  Solubility of Compound I, mg/g of vehicle: ≧191 mg/g of vehicle
[1]; IMWITOR 742-Oleic Acid-TWEEN 80-MIGLYOL 812 (2:4:2:2), w/w/w/w, Polymorph B, room temperature
  Solubility of Compound I, mg/g of vehicle: 140 mg/g of vehicle
[1]; IMWITOR 742-TWEEN 80 (50:50) w/w, Polymorph B, room temperature
  Solubility of Compound I, mg/g of vehicle: 184 mg/g of vehicle
[1]; IMWITOR 742-TWEEN 80 (60:40), w/w, Polymorph B, room temperature
  Solubility of Compound I, mg/g of vehicle: 209 mg/g of vehicle
[1]; IMWITOR 742-TWEEN 80, (70:30), w/w, Polymorph B, room temperature
  Solubility of Compound I, mg/g of vehicle: 222 mg/g of vehicle
[1]; IMWITOR 742-TWEEN 80-Oleic Acid (4:2:4), w/w/w, Polymorph B, room temperature
  Solubility of Compound I, mg/g of vehicle: 159 mg/g of vehicle
[1]; IMWITOR 742-TWEEN 80-Oleic Acid (5:3:2), w/w/w, Polymorph B, room temperature
  Solubility of Compound I, mg/g of vehicle: 178 mg/g of vehicle
[1]; IMWITOR 742, at 30 C., anhydrous unsolvated Polymorph B
  Solubility of Compound I, mg/g of vehicle: 267 (at 30 C.) mg/g of vehicle
[1]; LABRAFIL M1944CS, Polymorph B, room temperature
  Solubility of Compound I, mg/g of vehicle: 84 mg/g of vehicle
[1]; LABRASOL, Polymorph B, room temperature
  Solubility of Compound I, mg/g of vehicle: 202 mg/g of vehicle
[1]; MIGLYOL 812-Corn oil-SPAN 80-TWEEN 80 (30:20:25:25), w/w/w, Polymorph B, room temperature
  Solubility of Compound I, mg/g of vehicle: 97 mg/g of vehicle
[1]; MIGLYOL 812-IMWITOR 742, 1:1 v/v, Polymorph B, room temperature
  Solubility of Compound I, mg/g of vehicle: ≧204 mg/g of vehicle
[1]; MIGLYOL 812-IMWITOR 742, 4:1 v/v, Polymorph B, room temperature
  Solubility of Compound I, mg/g of vehicle: 173 mg/g of vehicle
[1]; MIGLYOL 812-LABRASOL/TWEEN80/Oleic acid (40:25:25:10), w/w/w/w, Polymorph B, room temperature
  Solubility of Compound I, mg/g of vehicle: 158 mg/g of vehicle
[1]; MIGLYOL 812-PECEOL, 1:1 v/v, Polymorph B, room temperature
  Solubility of Compound I, mg/g of vehicle: 118 mg/g of vehicle
[1]; MIGLYOL 812-TWEEN 80, 1:1 w/w, Polymorph B, room temperature
  Solubility of Compound I, mg/g of vehicle: 113 mg/g of vehicle
[1]; MIGLYOL 812/Oleic acid/CREMOPHOR EL (5:2:3), w/w/w/w, Polymorph B, room temperature
  Solubility of Compound I, mg/g of vehicle: 129 mg/g of vehicle
[1]; MIGLYOL 812/Oleic acid/TWEEN 80 (5:2:3), w/w/w/w, Polymorph B, room temperature
  Solubility of Compound I, mg/g of vehicle: 120 mg/g of vehicle
[1]; MIGLYOL 812, Polymorph B, room temperature
  Solubility of Compound I, mg/g of vehicle: 94 mg/g of vehicle
[1]; Oleic Acid, Polymorph B, room temperature
  Solubility of Compound I, mg/g of vehicle: 20 mg/g of vehicle
[1]; Olive oil, Polymorph B, room temperature
  Solubility of Compound I, mg/g of vehicle: 18 mg/g of vehicle
[1]; PEG400-TWEEN80 (1:1), w/w, Polymorph B, room temperature
  Solubility of Compound I, mg/g of vehicle: 138 mg/g of vehicle
[1]; PEG400, Polymorph B, room temperature
  Solubility of Compound I, mg/g of vehicle: 120 mg/g of vehicle
[1]; PG, Polymorph B, room temperature
  Solubility of Compound I, mg/g of vehicle: 28 mg/g of vehicle
[1]; SPAN 80, Polymorph B, room temperature
  Solubility of Compound I, mg/g of vehicle: 45 mg/g of vehicle
[1]; Soybean Oil, Polymorph B, room temperature
  Solubility of Compound I, mg/g of vehicle: 21 mg/g of vehicle
[1]; Soybean oil-SPAN 80-TWEEN 80 (50:25:25), w/w/w, Polymorph B, room temperature
  Solubility of Compound I, mg/g of vehicle: 59 mg/g of vehicle
[1]; TWEEN 80-LABRASOL-Oleic Acid (25:25:50), w/w/w, Polymorph B, room temperature
  Solubility of Compound I, mg/g of vehicle: 120 mg/g of vehicle
[1]; TWEEN 80, Polymorph B, room temperature
  Solubility of Compound I, mg/g of vehicle: 104 mg/g of vehicle
[2]; aqueous medium (not further specified)
  solubility: < 0.4 µg/mL
[2]; aqueous medium, typically
  solubility: < 0.4 µg/mL
[3]
  oral bioavailability: very poorly orally bioavailable
[4]
  oral bioavailability: very poorly orally bioavailable
